#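 Method: 48-hour compound exposure of cells in 96-well plates, five concentrations, linear interpolation of endpoints. GI50 marks 50% less growth. TGI is the concentration that stops growth completely.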
# Experiments:
# Assay in all cases: NCI-60 cell line screen, 48 h
# NCI-H226 lung = tested on: NCI-H226 lung
# NCI-H23 lung = tested on: NCI-H23 lung
# NCI-H460 lung = tested on: NCI-H460 lung
# NCI-H522 lung = tested on: NCI-H522 lung
# NCI/ADR-RES ovarian = tested on: NCI/ADR-RES ovarian
# OVCAR-3 ovarian = tested on: OVCAR-3 ovarian
# OVCAR-4 ovarian = tested on: OVCAR-4 ovarian
# OVCAR-5 ovarian = tested on: OVCAR-5 ovarian
# OVCAR-8 ovarian = tested on: OVCAR-8 ovarian
# PC-3 prostate = tested on: PC-3 prostate
# RPMI-8226 leukemia = tested on: RPMI-8226 leukemia
# RXF 393 renal = tested on: RXF 393 renal
# SF-268 CNS = tested on: SF-268 CNS
# SF-295 CNS = tested on: SF-295 CNS
# SF-539 CNS = tested on: SF-539 CNS
# SK-MEL-2 melanoma = tested on: SK-MEL-2 melanoma
# SK-MEL-28 melanoma = tested on: SK-MEL-28 melanoma
# SK-MEL-5 melanoma = tested on: SK-MEL-5 melanoma
# SK-OV-3 ovarian = tested on: SK-OV-3 ovarian
# SN12C renal = tested on: SN12C renal
# SNB-19 CNS = tested on: SNB-19 CNS
# SNB-75 CNS = tested on: SNB-75 CNS
# SR leukemia = tested on: SR leukemia
# SW-620 colon = tested on: SW-620 colon
# T-47D breast = tested on: T-47D breast
# TK-10 renal = tested on: TK-10 renal
# U251 CNS = tested on: U251 CNS
# UACC-257 melanoma = tested on: UACC-257 melanoma
# UACC-62 melanoma = tested on: UACC-62 melanoma
# UO-31 renal = tested on: UO-31 renal
compound,measurement,setting,value
O=c1[nH]c2ccccc2cc1CSc1ccc(Nc2nccc(-c3ccc(C(F)(F)F)cc3)n2)cc1,TGI,NCI-H226 lung,3.8 µM
same,GI50,NCI-H23 lung,4 µM
same,TGI,NCI-H23 lung,18.8 µM
same,GI50,NCI-H460 lung,0.0643 µM
same,TGI,NCI-H460 lung,1.53 µM
same,GI50,NCI-H522 lung,6.19 µM
same,TGI,NCI-H522 lung,28.7 µM
same,GI50,NCI/ADR-RES ovarian,1.32 µM
same,TGI,NCI/ADR-RES ovarian,6.21 µM
same,GI50,OVCAR-3 ovarian,1.38 µM
same,TGI,OVCAR-3 ovarian,3.58 µM
same,GI50,OVCAR-4 ovarian,1.23 µM
same,TGI,OVCAR-4 ovarian,3.95 µM
same,GI50,OVCAR-5 ovarian,30.6 µM
same,TGI,OVCAR-5 ovarian,> 100 µM
same,GI50,OVCAR-8 ovarian,1.94 µM
same,TGI,OVCAR-8 ovarian,5.97 µM
same,GI50,PC-3 prostate,6.77 µM
same,TGI,PC-3 prostate,61.5 µM
same,GI50,RPMI-8226 leukemia,61.6 µM
same,TGI,RPMI-8226 leukemia,> 100 µM
same,GI50,RXF 393 renal,2.67 µM
same,TGI,RXF 393 renal,13 µM
same,GI50,SF-268 CNS,2.97 µM
same,TGI,SF-268 CNS,20.9 µM
same,GI50,SF-295 CNS,1.62 µM
same,TGI,SF-295 CNS,5.72 µM
same,GI50,SF-539 CNS,2.7 µM
same,TGI,SF-539 CNS,10.9 µM
same,GI50,SK-MEL-2 melanoma,18.7 µM
same,TGI,SK-MEL-2 melanoma,39.5 µM
same,GI50,SK-MEL-28 melanoma,20.6 µM
same,TGI,SK-MEL-28 melanoma,> 100 µM
same,GI50,SK-MEL-5 melanoma,15.4 µM
same,TGI,SK-MEL-5 melanoma,45.9 µM
same,GI50,SK-OV-3 ovarian,15.6 µM
same,TGI,SK-OV-3 ovarian,30.6 µM
same,GI50,SN12C renal,16.7 µM
same,TGI,SN12C renal,40.8 µM
same,GI50,SNB-19 CNS,2.32 µM
same,TGI,SNB-19 CNS,10.3 µM
same,GI50,SNB-75 CNS,0.714 µM
same,TGI,SNB-75 CNS,3.88 µM
same,GI50,SR leukemia,> 100 µM
same,TGI,SR leukemia,> 100 µM
same,GI50,SW-620 colon,5.53 µM
same,TGI,SW-620 colon,> 100 µM
same,GI50,T-47D breast,1.84 µM
same,TGI,T-47D breast,54.3 µM
same,GI50,TK-10 renal,1.6 µM
same,TGI,TK-10 renal,3.97 µM
same,GI50,U251 CNS,0.198 µM
same,TGI,U251 CNS,2.61 µM
same,GI50,UACC-257 melanoma,29.2 µM
same,TGI,UACC-257 melanoma,> 100 µM
same,GI50,UACC-62 melanoma,15.4 µM
same,TGI,UACC-62 melanoma,33 µM
same,GI50,UO-31 renal,4.82 µM
same,TGI,UO-31 renal,19.6 µM
